Data reported in patent US11311485B2, “Self-assembled particles for targeted delivery of immunomodulators to treat autoimmunity and cancer” (UNIVERSITY OF MARYLAND, BALTIMORE COUNTY, priority 2018, dated 2022).

Test: Loading capacity of filomicelles (PEG PPS) with other immunosuppressives used in lupus
Type: physicochemical
Settings: drug per mg of filomicelles, FIG. 10
Description: Transmission electron microscopy (TEM) images of loaded and unloaded FMs show no difference in morphology or structure, as shown in FIG. 3.

loading into filomicelles (PEG-PPS): ~400 µg/mg
SMILES: Cn1cnc([N+](=O)[O-])c1Sc1ncnc2nc[nH]c12 [AZA, azathioprine]
